Measurements: patent publication US9060515B2, “Heterocyclic urea compounds” (BIOTA EUROPE LTD, priority 2011, dated 2015)
Converted amounts (≈) assume the structure as drawn.

Columns and labels:
Type in all cases: cell-based
[1] = test system: H. influenzae (ATCC 49247); experiment: Antibacterial susceptibility testing (MIC, broth microdilution or agar dilution), H. influenzae; conditions: Haemophilus influenzae, ATCC49247; read-out: H. influenzae (ATCC 49247) minimal inhibitory concentration (MIC)
Protocol: (§1) Compounds of the invention were tested for antimicrobial activity by susceptibility testing in liquid or on solid media. MICs for compounds against each strain were determined by the broth microdilution or agar dilution method according to the guidelines of the Clinical Laboratories and Standards Institute, formerly the National Committee for Clinical Laboratory Standards (Clinical Laboratories and Standards Institute. Methods for Dilution Antimicrobial Susceptibility Tests for Bacteria That Grow Aerobically; Approved Standard—Seventh Edition. Document M7-A7. CLSI, Wayne, Pa., 2006; Clinical Laboratories and Standards Institute. The Gram positive bacterial strains tested include S. aureus (Staphylococcus aureus (Isolate ID ATCC 29213)), E. faecalis (Enterococcus faecalis (Isolate ID ATCC 29212)) and S. pyogenes (Streptococcus pyogenes (Isolate ID ATCC 51339)). The Gram negative bacterial strains tested include H. influenzae (Haemophilus influenzae (Isolate ID ATCC 49247)).

E. faecalis (ATCC 29212) = experiment: Antibacterial susceptibility testing (MIC, broth microdilution or agar dilution), E. faecalis; conditions: Enterococcus faecalis, ATCC29212; read-out: E. faecalis (ATCC 29212) minimal inhibitory concentration (MIC)
Protocol: as §1

S. aureus (ATCC 29213) = experiment: Antibacterial susceptibility testing (MIC, broth microdilution or agar dilution), S. aureus; conditions: Staphylococcus aureus, ATCC29213; read-out: S. aureus (ATCC 29213) minimal inhibitory concentration (MIC)
In short: (§2)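 MICs by CLSI (M7-A7) broth microdilution or agar dilution, against reference ATCC strains as listed.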

S. pyogenes (ATCC 51339) = experiment: Antibacterial susceptibility testing (MIC, broth microdilution or agar dilution), S. pyogenes; conditions: Streptococcus pyogenes, ATCC51339; read-out: S. pyogenes (ATCC 51339) minimal inhibitory concentration (MIC)
In short: as §2

SMILES | MIC [1] | MIC (E. faecalis (ATCC 29212)) | MIC (S. aureus (ATCC 29213)) | MIC (S. pyogenes (ATCC 51339))
CCNC(=O)Nc1cc(Nc2cccc(C#N)c2)c(C(=O)Nc2ccc(CC(C)(C)C(=O)O)cc2)cn1 [Compound 199, 3-{4-[({4-[(3-cyanophenyl)amino]-6-[(ethylcarbamoyl)amino]pyridin-3-yl}carbonyl)amino]phenyl}-2,2-dimethylpropanoic acid] | 2 µg/mL (≈ 4 µM) | ≤ 1 µg/mL | 2 µg/mL (≈ 4 µM) | –
CCNC(=O)Nc1cc(Nc2cncc(F)c2)c(C(=O)Nc2ccc(CCC(=O)O)cc2)cn1 [Compound 236] | 4 µg/mL (≈ 8.57 µM) | ≤ 1 µg/mL | 4 µg/mL (≈ 8.57 µM) | –
CCNC(=O)Nc1cc(Nc2ccc(F)c(C)c2)c(C(=O)Nc2ccc(CCC(=O)O)cc2)cn1 [Compound 223, 3-{4-[({6-[(ethylcarbamoyl)amino]-4-[(4-fluoro-3-methylphenyl)amino]pyridin-3-yl}carbonyl)amino]phenyl}propanoic acid] | ≤ 1 µg/mL | ≤ 1 µg/mL | ≤ 1 µg/mL | –
CCNC(=O)Nc1cc(Nc2ccc(F)cc2F)c(C(=O)Nc2ccc(CCC(=O)O)cc2)cn1 [Compound 230, 3-{4-[({4-[(2,4-difluorophenyl)amino]-6-[(ethylcarbamoyl)amino]pyridin-3-yl}carbonyl)amino]phenyl}propanoic acid] | ≤ 1 µg/mL | ≤ 1 µg/mL | ≤ 1 µg/mL | –
CCNC(=O)Nc1cc(Nc2cccc(S(F)(F)(F)(F)F)c2)c(C(=O)Nc2ccc(CCC(=O)O)cc2)cn1 [Compound 237, 3-(4-{[(6-[(ethylcarbamoyl)amino]-4-{[3-(pentafluorothio)phenyl]amino}pyridin-3-yl)carbonyl]amino}phenyl)propanoic acid] | 2 µg/mL (≈ 3.49 µM) | ≤ 1 µg/mL | ≤ 1 µg/mL | –
CCNC(=O)Nc1cc(Nc2cc(F)cc(F)c2)c(C(=O)Nc2ccc(CC(C)(C)C(=O)O)cc2)cn1 [Compound 239, 3-{4-[({4-[(3,5-difluorophenyl)amino]-6-[(ethylcarbamoyl)amino]pyridin-3-yl}carbonyl)amino]phenyl}-2,2-dimethyl propanoic acid] | ≤ 1 µg/mL | ≤ 1 µg/mL | ≤ 1 µg/mL | –
CCNC(=O)Nc1cc(Nc2ccccc2)c(C(=O)Nc2ccc(C(=O)OC)cc2)cn1 [Compound 67, methyl 4-(6-(3-ethylureido)-4-(phenylamino)nicotinamido)benzoate] | 4 µg/mL (≈ 9.23 µM) | – | ≤ 1 µg/mL | ≤ 1 µg/mL
CCNC(=O)Nc1cc(Nc2ccccc2)c(C(=O)Nc2ccc(NS(C)(=O)=O)cc2)cn1 [Compound 232, 6-[(ethylcarbamoyl)amino]-N-{4-[(methylsulfonyl)amino]phenyl}-4-(phenylamino)pyridine-3-carboxamide] | 4 µg/mL (≈ 8.54 µM) | ≤ 1 µg/mL | 2 µg/mL (≈ 4.27 µM) | –
CCNC(=O)Nc1cc(Nc2ccccc2)c(C(=O)Nc2ccc(-n3cccc3C(=O)O)cc2)cn1 [Compound 198, 1-{4-[({6-[(ethylcarbamoyl)amino]-4-(phenylamino)pyridin-3-yl}carbonyl)amino]phenyl}-1H-pyrrole-2-carboxylic acid] | 4 µg/mL (≈ 8.26 µM) | ≤ 1 µg/mL | 8 µg/mL (≈ 16.5 µM) | –
CCNC(=O)Nc1cc(Nc2ccccc2)c(C(=O)Nc2cc(C(=O)O)n(C)c2)cn1 [Compound 103, 4-(6-(3-ethylureido)-4-(phenylamino)nicotinamido)-1-methyl-1H-pyrrole-2-carboxylic acid] | 4 µg/mL (≈ 9.47 µM) | – | 4 µg/mL (≈ 9.47 µM) | ≤ 1 µg/mL
CCNC(=O)Nc1cc(Nc2ccccc2)c(C(=O)Nc2ccc(CC(=O)O)cc2)cn1 [Compound 71, 2-(4-(6-(3-ethylureido)-4-(phenylamino)nicotinamido)phenyl)acetic acid] | 2 µg/mL (≈ 4.61 µM) | – | 16 µg/mL (≈ 36.9 µM) | ≤ 1 µg/mL
CCNC(=O)Nc1cc(Nc2ccccc2)c(C(=O)Nc2ccc(C(=O)O)cc2)cn1 [Compound 68, 4-(6-(3-ethylureido)-4-(phenylamino)nicotinamido)benzoic acid] | 4 µg/mL (≈ 9.54 µM) | – | 8 µg/mL (≈ 19.1 µM) | ≤ 1 µg/mL
CCNC(=O)Nc1cc(Nc2ccccc2)c(C(=O)Nc2ccc(CC(C)(C)C(=O)O)cc2)cn1 [Compound 130, 3-(4-(6-(3-ethylureido)-4-(phenylamino)nicotinamido)phenyl)-2,2-dimethylpropanoic acid] | 4 µg/mL (≈ 8.41 µM) | – | ≤ 1 µg/mL | ≤ 1 µg/mL
CCNC(=O)Nc1cc(Nc2ccc(Cl)cc2)c(C(=O)Nc2ccc(CCC(=O)OC)cc2)cn1 [Compound 148, methyl 3-{4-[({4-[(4-chlorophenyl)amino]-6-[(ethylcarbamoyl)amino]pyridin-3-yl}carbonyl)amino]phenyl}propanoate] | 4 µg/mL (≈ 8.07 µM) | – | ≤ 1 µg/mL | –
CCNC(=O)Nc1cc(Nc2ccccc2)c(C(=O)Nc2ccn(C)c(=O)c2)cn1 [Compound 134, 6-[(Ethylcarbamoyl)amino]-N-(1-methyl-2-oxo-1,2-dihydropyridin-4-yl)-4-(phenylamino)pyridine-3-carboxamide] | 8 µg/mL (≈ 19.7 µM) | – | 4 µg/mL (≈ 9.84 µM) | –
CCNC(=O)Nc1cc(Nc2ccccc2)c(C(=O)Nc2ccc(CCC(=O)N(C)OC)cc2)cn1 [Compound 123, 6-(3-Ethylureido)-N-(4-(3-(methoxy(methyl)amino)-3-oxopropyl)phenyl)-4-(phenylamino)nicotinamide] | 8 µg/mL (≈ 16.3 µM) | – | ≤ 1 µg/mL | ≤ 1 µg/mL
CCNC(=O)Nc1cc(Nc2ccccc2)c(C(=O)Nc2ccc(CC(=O)OCC)cc2)cn1 [Compound 70, ethyl 2-(4-(6-(3-ethylureido)-4-(phenylamino)nicotinamido)phenyl)acetate] | 2 µg/mL (≈ 4.33 µM) | – | ≤ 1 µg/mL | ≤ 1 µg/mL
CCNC(=O)Nc1cc(Nc2cccc(Cl)c2)c(C(=O)Nc2ccc(CC(C)(C)C(=O)O)cc2)cn1 [Compound 177, 3-{4-[({4-[(3-chlorophenyl)amino]-6-[(ethylcarbamoyl)amino]pyridin-3-yl}carbonyl)amino]phenyl}-2,2-dimethylpropanoic acid] | 4 µg/mL (≈ 7.84 µM) | – | ≤ 1 µg/mL | –
CCNC(=O)Nc1cc(Nc2ccccc2)c(C(=O)Nc2ccc(CCC(=O)OC)cc2)cn1 [Compound 77] | 2 µg/mL (≈ 4.33 µM) | – | ≤ 1 µg/mL | ≤ 1 µg/mL
CCNC(=O)Nc1cc(Nc2ccccc2)c(C(=O)Nc2ccc(CCC(=O)O)cc2)cn1 [Compound 78, 3-[4-[[4-anilino-6-(ethylcarbamoylamino)pyridine-3-carbonyl]amino]phenyl]propanoic acid] | 2 µg/mL (≈ 4.47 µM) | – | ≤ 1 µg/mL | ≤ 1 µg/mL
CCNC(=O)Nc1cc(Nc2ccc(F)cc2)c(C(=O)Nc2ccc(CC(C)(C)C(=O)O)cc2)cn1 [Compound 175, 3-{4-[({6-[(ethylcarbamoyl)amino]-4-[(4-fluorophenyl)amino]pyridin-3-yl}carbonyl)amino]phenyl}-2,2-dimethylpropanoic acid] | 4 µg/mL (≈ 8.1 µM) | – | ≤ 1 µg/mL | –
CCNC(=O)Nc1cc(Nc2ccccc2)c(C(=O)Nc2ccnc(C)c2)cn1 [Compound 90, 6-(3-ethylureido)-N-(2-methylpyridin-4-yl)-4-(phenylamino)nicotinamide] | 8 µg/mL (≈ 20.5 µM) | – | ≤ 1 µg/mL | ≤ 1 µg/mL
CCNC(=O)Nc1cc(Nc2ccc(Cl)cc2)c(C(=O)Nc2ccc([C@@H]3C[C@H]3C(=O)O)cc2)cn1 [Compound 192, (1R,2R)-2-{4-[({4-[(4-chlorophenyl)amino]-6-[(ethylcarbamoyl)amino]pyridin-3-yl}carbonyl)amino]phenyl}cyclopropanecarboxylic acid] | 2 µg/mL (≈ 4.05 µM) | – | ≤ 1 µg/mL | –
